Laboratory results: patent publication US12077503B2, “Substituted cyclic amides and their use as herbicides” (FMC CORPORATION, priority 2015, dated 2024)

Columns and labels:
Type in all cases: in vivo
Kochia (Kochia scoparia) [1] = test: Test A preemergence; conditions: Preemergence; for Plant response rating, Kochia: 125 g ai/ha, visual injury after approximately 10 d, 0 to 100 scale where 0 is no effect and 100 is complete control; for Kochia plant response rating (0 to 100 scale, 0 is no effect, 100 is complete control): 500 g ai/ha, visual injury approx. 10 d
Method in brief: (§1)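 Visual injury, scored on a 0–100 scale relative to untreated controls, was recorded about 10 d after application. Treatments were a preemergence soil spray over planted seeds or a postemergence spray on plants at the one- to two-leaf stage, 2 to 10 cm tall, all in loam soil–sand blend in the greenhouse.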

[2] = system: barnyardgrass (Echinochloa crus-galli); test: Test A preemergence; conditions: Preemergence; for Plant response rating, Barnyardgrass: 125 g ai/ha, visual injury after approximately 10 d, 0 to 100 scale where 0 is no effect and 100 is complete control; for Barnyardgrass plant response rating (0 to 100 scale, 0 is no effect, 100 is complete control): 500 g ai/ha, visual injury approx. 10 d
Method in brief: as §1

[3] = system: giant foxtail (Setaria faberii); test: Test A preemergence; conditions: Preemergence; for Plant response rating, Foxtail, Giant: 125 g ai/ha, visual injury after approximately 10 d, 0 to 100 scale where 0 is no effect and 100 is complete control; for Foxtail, Giant plant response rating (0 to 100 scale, 0 is no effect, 100 is complete control): 500 g ai/ha, visual injury approx. 10 d
Method in brief: as §1

[4] = system: pigweed (Amaranthus retroflexus); test: Test A preemergence; conditions: Preemergence; for Plant response rating, Pigweed: 125 g ai/ha, visual injury after approximately 10 d, 0 to 100 scale where 0 is no effect and 100 is complete control; for Pigweed plant response rating (0 to 100 scale, 0 is no effect, 100 is complete control): 500 g ai/ha, visual injury approx. 10 d
[5] = system: ragweed (common ragweed, Ambrosia elatior); test: Test A preemergence; conditions: Preemergence; for Plant response rating, Ragweed: 125 g ai/ha, visual injury after approximately 10 d, 0 to 100 scale where 0 is no effect and 100 is complete control; for Ragweed plant response rating (0 to 100 scale, 0 is no effect, 100 is complete control): 500 g ai/ha, visual injury approx. 10 d
Method in brief: as §1

[6] = system: ryegrass, Italian (Italian ryegrass, Lolium multiflorum); test: Test A preemergence; conditions: Preemergence; for Plant response rating, Ryegrass, Italian: 125 g ai/ha, visual injury after approximately 10 d, 0 to 100 scale where 0 is no effect and 100 is complete control; for Ryegrass, Italian plant response rating (0 to 100 scale, 0 is no effect, 100 is complete control): 500 g ai/ha, visual injury approx. 10 d
Method in brief: as §1

[7] = system: Galium (catchweed bedstraw, Galium aparine); test: Test A postemergence
Method in brief: as §1

Kochia (Kochia scoparia) [8] = test: Test A postemergence
Method in brief: as §1

[9] = system: barnyardgrass (Echinochloa crus-galli); test: Test A postemergence; conditions: for Barnyardgrass plant response rating: 125 g ai/ha, postemergence, visual injury rating on 0 to 100 scale (0 no effect, 100 complete control), approx. 10 d; for Plant response rating, Barnyardgrass: Postemergence, 500 g ai/ha, 0 to 100 scale where 0 is no effect and 100 is complete control
Method in brief: as §1

[10] = system: blackgrass (Alopecurus myosuroides); test: Test A postemergence; conditions: for Blackgrass plant response rating: 125 g ai/ha, postemergence, visual injury rating on 0 to 100 scale (0 no effect, 100 complete control), approx. 10 d; for Plant response rating, Blackgrass: Postemergence, 500 g ai/ha, 0 to 100 scale where 0 is no effect and 100 is complete control
Method in brief: as §1

corn (Zea mays) = test: Test A postemergence
Method in brief: as §1

[11] = system: giant foxtail (Setaria faberii); test: Test A postemergence
Method in brief: as §1

[12] = system: pigweed (Amaranthus retroflexus); test: Test A postemergence
Method in brief: as §1

[13] = system: ragweed (common ragweed, Ambrosia elatior); test: Test A postemergence
Method in brief: as §1

[14] = system: ryegrass, Italian (Italian ryegrass, Lolium multiflorum); test: Test A postemergence
Method in brief: as §1

[15] = system: wheat (Triticum aestivum); test: Test A postemergence
Method in brief: as §1

[16] = system: barnyardgrass (Echinochloa crus-galli); test: Test B flooded paddy test; conditions: Flood, 250 g ai/ha; 0 to 100 scale where 0 is no effect and 100 is complete control; 13 to 15 d
Method in brief: (§2)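 Response scored visually against untreated controls, 0 = no effect and 100 = complete control, 13–15 d after treatment in the greenhouse. Compounds added to paddy water held 3 cm above soil surface. Treatment given at 2-leaf stage.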

[17] = system: ducksalad (Heteranthera limosa); test: Test B flooded paddy test; conditions: Flood, 250 g ai/ha; 0 to 100 scale where 0 is no effect and 100 is complete control; 13 to 15 d
Method in brief: as §2

rice (Oryra sativa) = test: Test B flooded paddy test; conditions: Flood, 250 g ai/ha; 0 to 100 scale where 0 is no effect and 100 is complete control; 13 to 15 d
Method in brief: as §2

[18] = system: sedge, umbrella (small-flower umbrella sedge, Cyperus difformis); test: Test B flooded paddy test; conditions: Flood, 250 g ai/ha; 0 to 100 scale where 0 is no effect and 100 is complete control; 13 to 15 d
Method in brief: as §2

[19] = 125 g ai/ha, postemergence, visual injury rating on 0 to 100 scale (0 no effect, 100 complete control), approx. 10 d
[20] = Postemergence, 500 g ai/ha, 0 to 100 scale where 0 is no effect and 100 is complete control
[21] = 125 g ai/ha, postemergence, visual rating after approx. 10 d, 0 to 100 scale (0 no effect, 100 complete control)

Cc1ccc(C2CNC(=O)C2C(=O)Nc2ccc(F)cc2F)c(F)c1 (racemic) [Compound 508]
70: Plant response rating, Barnyardgrass [2] | Foxtail, Giant plant response rating (0 to 100 scale, 0 is no effect, 100 is complete control) [3] | Barnyardgrass plant response rating [9]
40: Plant response rating, Foxtail, Giant [3] | Plant response rating, Foxtail, Giant [11, 20]
0: Plant response rating, Kochia (Kochia (Kochia scoparia) [1]) | Kochia plant response rating (0 to 100 scale, 0 is no effect, 100 is complete control) (Kochia (Kochia scoparia) [1]) | Plant response rating, Pigweed [4] | Pigweed plant response rating (0 to 100 scale, 0 is no effect, 100 is complete control) [4] | Plant response rating, Ragweed [5] | Ragweed plant response rating (0 to 100 scale, 0 is no effect, 100 is complete control) [5] | Plant response rating, Ryegrass, Italian [6] | Ryegrass, Italian plant response rating (0 to 100 scale, 0 is no effect, 100 is complete control) [6] | Galium plant response rating [7, 19] | Kochia plant response rating (Kochia (Kochia scoparia) [8]; [19]) | Blackgrass plant response rating [10] | Plant response rating, Blackgrass [10] | Corn plant response rating (corn (Zea mays); [19]) | Foxtail, Giant plant response rating [11, 19] | Pigweed plant response rating [12, 19] | Ragweed plant response rating [13, 19] | Plant response rating, Ragweed [13, 20] | Ryegrass, Italian plant response rating [14, 19] | Plant response rating, Ryegrass, Italian [14, 20] | Wheat plant response rating [15, 19] | Plant response rating, Barnyardgrass [16] | Plant response rating, Rice (rice (Oryra sativa)) | Plant response rating, Sedge, Umbrella [18]
20: Plant response rating, Galium [7, 20] | Plant response rating, Kochia (Kochia (Kochia scoparia) [8]; [20]) | Plant response rating, Corn (corn (Zea mays); [20]) | Plant response rating, Pigweed [12, 20] | Plant response rating, Wheat [15, 20]
50: Plant response rating, Ducksalad [17]
90: Barnyardgrass plant response rating (0 to 100 scale, 0 is no effect, 100 is complete control) [2] | Plant response rating, Barnyardgrass [9]

CN1CC(c2cccc(OC(F)(F)C(F)F)c2)C(C(=O)Nc2ccccc2F)C1=O (stereo not drawn) [Compound 539]
40: Plant response rating, Pigweed [4] | Plant response rating, Kochia (Kochia (Kochia scoparia) [8]; [21])
70: Kochia plant response rating (0 to 100 scale, 0 is no effect, 100 is complete control) (Kochia (Kochia scoparia) [1]) | Ragweed plant response rating (0 to 100 scale, 0 is no effect, 100 is complete control) [5] | Plant response rating, Galium [7, 21] | Plant response rating, Galium [7, 20] | Plant response rating, Kochia (Kochia (Kochia scoparia) [8]; [20]) | Plant response rating, Corn (corn (Zea mays); [21]) | Plant response rating, Ryegrass, Italian [14, 20] | Plant response rating, Wheat [15, 20]
50: Ryegrass, Italian plant response rating (0 to 100 scale, 0 is no effect, 100 is complete control) [6] | Blackgrass plant response rating [10] | Plant response rating, Pigweed [12, 20] | Plant response rating, Ragweed [13, 20] | Plant response rating, Wheat [15, 21]
30: Plant response rating, Ryegrass, Italian [6]
0: Plant response rating, Ragweed [5] | Plant response rating, Ragweed [13, 21] | Plant response rating, Ryegrass, Italian [14, 21] | Plant response rating, Rice (rice (Oryra sativa)) | Plant response rating, Sedge, Umbrella [18]
80: Pigweed plant response rating (0 to 100 scale, 0 is no effect, 100 is complete control) [4] | Plant response rating, Blackgrass [10]
90: Plant response rating, Barnyardgrass [2] | Barnyardgrass plant response rating (0 to 100 scale, 0 is no effect, 100 is complete control) [2] | Plant response rating, Foxtail, Giant [3] | Foxtail, Giant plant response rating (0 to 100 scale, 0 is no effect, 100 is complete control) [3] | Barnyardgrass plant response rating [9] | Plant response rating, Barnyardgrass [9] | Plant response rating, Corn (corn (Zea mays); [20]) | Plant response rating, Foxtail, Giant [11, 21] | Plant response rating, Foxtail, Giant [11, 20]
20: Plant response rating, Pigweed [12, 21]
60: Plant response rating, Kochia (Kochia (Kochia scoparia) [1])
65: Plant response rating, Barnyardgrass [16]
95: Plant response rating, Ducksalad [17]
